Measurements published in patent US6369093B1, “Pyrazole carboxanilide fungicide” (Bayer Aktiengesellschaft, priority 1998, dated 2002).

Assays:
[1] = test system: Erysiphe graminis f. sp. hordei; assay: Erysiphe test (barley)/protective; type: in vivo; conditions: barley plants, protective spray, application rate 750 g/ha, evaluation 7 days after inoculation
Method: Erysiphe test (barley)/protective [table] To produce a suitable preparation of active compound, 1 part by weight of active compound is mixed with the stated amounts of solvent and emulsifier, and the concentrate is diluted with water to the desired concentration. To test for protective activity, young cereal plants are sprayed with the preparation of active compound at the stated application rate. 1 day after the treatment, the plants are inoculated with spores of Erysiphe graminis f. sp. hordei. The plants are then placed in a greenhouse at 70% relative atmospheric humidity and a temperature of 18° C. Evaluation is carried out 7 days after the inoculation. 0% means an efficacy which corresponds to that of the control, whereas an efficacy of 100% means that no infection is observed.

Podosphaera leucotricha = assay: Podosphaera test (apple)/protective; type: in vivo; conditions: apple plants, protective spray, application rate 100 g/ha, evaluation 10 days after inoculation
Method: (§1) [table] To produce a suitable preparation of active compound, 1 part by weight of active compound is mixed with the stated amounts of solvent and emulsifier, and the concentrate is diluted with water to the desired concentration. To test for protective activity, young plants are sprayed with the preparation of active compound at the stated application rate. After the spray coating has dried on, the plants are inoculated with an aqueous spore suspension of the causative organism of apple mildew Podosphaera leucotricha. The plants are then placed in a greenhouse at about 23° C. and a relative atmospheric humidity of about 70%. Evaluation is carried out 10 days after the inoculation. 0% means an efficacy which corresponds to that of the control, whereas an efficacy of 100% means that no infection is observed.

Pyrenophora teres = Pyrenophora teres test (barley)/protective; type: in vivo; conditions: barley plants, protective spray, application rate 250 g/ha, evaluation 7 days after inoculation
Method: [table] To produce a suitable preparation of active compound, 1 part by weight of active compound is mixed with the stated amounts of solvent and emulsifier, and the concentrate is diluted with water to the desired concentration. To test for protective activity, young plants are sprayed with the preparation of active compound at the stated application rate. After the spray coating has dried on, the plants are sprayed with a conidia suspension of Pyrenophora teres. The plants remain in an incubation cabin at 20° C. and 100% relative atmospheric humidity for 48 hours. The plants are then placed in a greenhouse at a temperature of about 20° C. and a relative atmospheric humidity of about 80%. Evaluation is carried out 7 days after the inoculation. 0% means an efficacy which corresponds to that of the control, whereas an efficacy of 100% means that no infection is observed.

Venturia inaequalis = assay: Venturia test (apple)/protective; type: in vivo; conditions: apple plants, protective spray, application rate 100 g/ha, evaluation 12 days after inoculation
Method: To produce a suitable preparation of active compound, 1 part by weight of active compound is mixed with the stated amounts of solvent and emulsifier, and the concentrate is diluted with water to the desired concentration.
To test for protective activity, young plants are sprayed with the preparation of active compound at the stated application rate. After the spray coating has dried on, the plants are inoculated with an aqueous conidia suspension of the causative organism of apple scab Venturia inaequalis and then remain in an incubation cabin at 20° C. and 100% relative atmospheric humidity for 1 day.
The plants are then placed in a greenhouse at about 21° C. and a relative atmospheric humidity of about 90%.
Evaluation is carried out 12 days after the inoculation. 0% means an efficacy which corresponds to that of the control, whereas an efficacy of 100% means that no infection is observed.

Sphaerotheca fuliginea = assay: Sphaerotheca test (cucumber)/protective; type: in vivo; conditions: cucumber plants, protective spray, application rate 100 g/ha, evaluation 10 days after inoculation
Method: as §1, with “Afier” for “After”, “Sphaerotheca fuliginea.” for “the causative organism of apple mildew Podosphaera leucotricha.”, “placed” for “placed in a greenhouse”, “70% in a greenhouse.” for “70%.”

| Compound | melting point [°C] | Efficacy in % [1] [%] | Efficacy in % (Podosphaera leucotricha) [%] | Efficacy in % (Pyrenophora teres) [%] | Efficacy in % (Venturia inaequalis) [%] | Efficacy in % (Sphaerotheca fuliginea) [%] |
| --- | --- | --- | --- | --- | --- | --- |
| Cc1ccccc1-c1ccccc1NC(=O)c1c(C)nn(C)c1F [Example 2] | 100 | 90 | 96 |  |  |  |
| Cc1nn(C)c(F)c1C(=O)Nc1ccccc1-c1ccc(Br)cc1 [Example 1, N-[2-(4-bromophcnyl)]-1,3-dimethyl-5-fluoro-pyrazole-4-carboxanilide] | 127 | 100 | 100 | 100 | 100 | 95 |
| Cc1nn(C)c(F)c1C(=O)Nc1ccccc1-c1cccc(C(F)(F)F)c1 [Example 9] | 116 |  | 100 | 100 | 97 | 94 |
| Cc1nn(C)c(F)c1C(=O)Nc1ccccc1-c1ccccc1C(F)(F)F [Example 4] | 103 |  | 97 |  |  |  |
| Cc1ccc(-c2ccccc2NC(=O)c2c(C)nn(C)c2F)cc1Cl [Example 8] |  |  | 98 | 100 | 100 |  |
| Cc1cccc(NC(=O)c2c(C)nn(C)c2F)c1-c1ccccc1 [Example 16] | 144 | 94 |  |  |  |  |
| Cc1nn(C)c(F)c1C(=O)Nc1ccccc1-c1ccccc1F [Example 5] | 113 |  | 99 |  |  |  |
| Cc1cccc(NC(=O)c2c(C)nn(C)c2F)c1-c1ccc(Cl)cc1 [Example 17] | 177 | 100 |  | 100 |  |  |
